From ChEMBL document CHEMBL1150658, “New ent-kaurane diterpenoids with anti-platelet aggregation activity from Annona squamosa” (2002)

How the values were obtained:
Type in all cases: functional
Settings in all cases: Oryctolagus cuniculus
[1] = Antiplatelet activity against washed rabbit platelet assessed as inhibition of collagen-induced platelet aggregation at 200 uM
[2] = Antiplatelet activity against washed rabbit platelet assessed as inhibition of thrombin-induced platelet aggregation at 200 uM
[3] = Antiplatelet activity against washed rabbit platelet assessed as inhibition of arachidonic acid-induced platelet aggregation at 200 uM
[4] = Antiplatelet activity against washed rabbit platelet assessed as inhibition of platelet activating factor-induced platelet aggregation at 200 uM

Structure (SMILES) | inhibition at 200 µM [1] [%] | inhibition at 200 µM [2] [%] | inhibition at 200 µM [3] [%] | inhibition at 200 µM [4] [%]
C[C@@]12CCC[C@@](C)(C(=O)O)[C@H]1CC[C@@]13C[C@@H](CC[C@H]12)[C@H](C(=O)O)C3 | 56.9 | 6 | 15.4 | 15.2
C[C@@]12CCC[C@@](C)(C=O)[C@H]1CC[C@@]13C[C@@H](CC[C@H]12)[C@@H](C(=O)O)C3 | 100 | 6.8 | 100 | 11.8
C[C@@]12CCC[C@@](C)(C(=O)O)[C@H]1CC[C@@]13C[C@@H](CC[C@H]12)[C@](O)(CO)C3 | 8.6 | 6.8 | 14.9 | 14.4
C[C@@]12CCC[C@@](C)(O)[C@H]1CC[C@@]13C[C@H](CC[C@H]12)[C@](O)(CO)C3 [ANNOSQUAMOSIN B] | 21.1 | 1.6 | 8.7 | 8.5
C[C@@]12CCC[C@@](C)(O)[C@H]1CC[C@@]13C[C@@H](CC[C@H]12)[C@@H](C(=O)O)C3 | 30.5 | 2 | 4.5 | 13.3
C[C@@]12CCC[C@@](C)(C(=O)O)[C@H]1CC[C@]13C[C@@H](CO)[C@H](CC[C@H]12)C3 | 23.8 | 2.8 | 4.1 | 7.4
CC(=O)O[C@@]1(CO)C[C@@]23CC[C@H]4[C@@](C)(CCC[C@@]4(C)O)[C@@H]2CC[C@@H]1C3 [ANNOSQUAMOSIN D] | 10.6 | 2 | 4.9 | 9.3
C[C@@]12CCC[C@@](C)(C(=O)O)[C@H]1CC[C@@]13C[C@H](CC[C@H]12)[C@@](O)(CO)C3 | 2.3 | 0.4 | 7.2 | 8.9
C[C@@]12CCC[C@@](C)(C=O)[C@H]1CC[C@@]13C[C@@H](CC[C@H]12)[C@@](O)(CO)C3 | 4.9 | 3.2 | 0.5 | 10.3
CC(=O)OC[C@]1(O)C[C@@]23CC[C@H]4[C@@](C)(CCC[C@@]4(C)C(=O)O)[C@@H]2CC[C@H]1C3 | 30.1 | 8 | 10.8 | 11.1
C[C@@]12CCC[C@@](C)(C=O)[C@H]1CC[C@@]13C[C@@H](CC[C@H]12)[C@](O)(CO)C3 | 17.6 | 0 | 9.6 | 5.5
C=C1C[C@@]23CC[C@H]4[C@@](C)(CCC[C@@]4(C)C(=O)O)[C@@H]2CC[C@@H]1C3 [KAURENOIC ACID] | 100 | 5.6 | 24.8 | 12.6
